Assay results: publication PMC12655637, “Design, Synthesis, and Mechanistic Study of Novel Ciprofloxacin/Thiazole Chalcone Hybrids as Potential Anticancer Agents” (Pharmaceuticals, 2025)
Values joined by “and” are separate entries in the source; they are usually repeats but may differ in a detail not shown here. Equal values may be shown once.

Legend:
[1] = In vitro cytotoxicity against normal cell line WI 38; type: cell-based; settings: human, WI-38 normal cell line; for viability at 0.4 µM: WI38, 0.4uM; for viability at 1.6 µM: WI38, 1.6uM; for viability at 6.3 µM: WI38, 6.3uM; for viability at 25 µM: WI38, 25uM; for viability at 100 µM: WI38, 100uM; for IC50: ± SEM
Source text: Detailed results of cytotoxicity of compounds 4b and 4d against normal cell
Blank CC Sample No. 4b/WI38 sample no. 4d/WI38
conc. viability conc. viability

CNS Cancer cell lines = assay: NCI five-dose testing, subpanel (MID b, selectivity); settings: for SI: full-panel MG-MID / subpanel MG-MID, CNS Cancer; for MG-MID: mean activity across subpanel CNS Cancer
Source text: (§1) The log10 GI50, log10 TGI, and log10 LC50 values were subsequently calculated as the averages of the log10 values of the respective individual GI50, TGI, and LC50 measurements. Negative numbers signified the most sensitive cell lines.
(§2) One way to measure a compound’s selectivity is to divide its subpanel MID^b (in μM) by the MID^a (in μM), which is the average sensitivity of all cell lines to the test agent.
(§3) At the National Cancer Institute (NCI) in Bethesda, USA, researchers examined the anticancer potential of the target compounds under investigation using nine panels of sixty different cell lines obtained from nine different cancers that were housed in the NCI library. […] The anticancer screening was carried out at a single dose of 10^−5 M; the results obtained were expressed as growth inhibition (%).
(§4) The anti-cancer potential of the tested compounds was evaluated at the National cancer institute (NCI), Bethesda, USA, against 9 panels of 60 various cell lines derived from nine human tumours available usually at NCI library. […] The anticancer screening was carried out at single dose of 10^-5 M. The results obtained as growth inhibition (%).
(§5) Cell lines were grown in Roswell Park Memorial Institute medium (RPMI) with 5% fetal bovine serum and 2% μM L-glutamine. Cancer cells are inoculated into 96 well microtiter plates in 100 μL at plating densities ranging from 5000 to 40,000 cells/well depending on the doubling time of individual cell lines. Then microtiter plates are incubated at 37 °C, 5% CO2, 95% air and 100% relative humidity for 24 h prior to the addition of the tested compounds. After 24 h, two plates of each cell line are fixed in situ with trichloroacetic acid (TCA). The tested compounds were dissolved in dimethyl sulfoxide (DMSO) and stored in the freezer prior to use. An aliquot of frozen drug concentrate is diluted to the desired concentration with complete medium containing 50 μg/mL gentamicin.
(§6) compounds were added to the microtiter plates followed by incubation for further 48 h at 37 °C, 5% CO2, 95% air and 100% relative humidity. Fixation of cancer cell lines is carried out through gentle addition of 50 μL of cold 50 %w/v TCA (final concentration, 10% TCA) then incubated for 60 min. at 4 °C. The plates are washed five times with tap water after getting rid of the supernatant and allowed to dry in air. Sulforhodamine B (SRB) solution (100 μL) at 0.4% w/v in 1% acetic

[2] = test system: leukemia HL-60, RPMI-8226, and colon HCT-116 cells; assay: Antiproliferative activity, IC50 range over three cell lines; type: cell-based; settings: Homo sapiens; range over HL-60, RPMI-8226 and HCT-116
Colon Cancer cell lines = assay: NCI five-dose testing, subpanel (GI50 range, MID b, selectivity); settings: for GI50: Homo sapiens; for SI: full-panel MG-MID / subpanel MG-MID, Colon Cancer; for MG-MID: mean activity across subpanel Colon Cancer
Source text: as §1, §2, §3, §4, §5, §6

[3] = test system: Prostate Cancer cell lines; assay: NCI five-dose testing, subpanel (MID b, selectivity); settings: for SI: full-panel MG-MID / subpanel MG-MID, PC (prostate); for MG-MID: mean activity across subpanel PC (prostate)
Source text: as §1, §2
(§7) At the National Cancer Institute (NCI) in Bethesda, USA, researchers examined the anticancer potential of the target compounds under investigation using nine panels of sixty different cell lines obtained from nine different cancers that were housed in the NCI library. Following the protocols laid out by the National Cancer Institute (https://dctd.cancer.gov/data-tools-biospecimens/data (accessed on 15 March 2023 and 6 January 2024)), the screening procedures were carried out [37]. The anticancer screening was carried out at a single dose of 10^−5 M; the results obtained were expressed as growth inhibition (%).
(§8) The anti-cancer potential of the tested compounds was evaluated at the National cancer institute (NCI), Bethesda, USA, against 9 panels of 60 various cell lines derived from nine human tumours available usually at NCI library. The procedures for the screening were described in details in NCI website (dttp://www.dtp.nci.nih.gov.) and were done according to NCI protocols. The anticancer screening was carried out at single dose of 10^-5 M. The results obtained as growth inhibition (%).
as §5, §6

Melanoma cell lines = assay: as above; settings: for SI: full-panel MG-MID / subpanel MG-MID, Melanoma; for MG-MID: mean activity across subpanel Melanoma
Source text: as §1, §2, §3, §4, §5, §6

[4] = test system: colon HCT116 cancer cell line; assay: Cell cycle analysis, propidium iodide flow cytometry; settings: for Cell cycle arrest phase: HCT116; for DNA Content G2/M Phase / DNA Content S Phase / DNA Content G0-G1 Phase: HCT116 treated with IC50 concentration; for DNA Content G2/M Phase: DMSO 8.68%; for DNA Content S Phase: DMSO 27.03%; for DNA Content G0-G1 Phase: DMSO 64.29%
Experimental: The effect of compounds 4b and 4d on the cell cycle progression of the colon HCT-116 cell line was evaluated using a Propidium Iodide Flow Cytometry Kit to measure the DNA content, as per the reported protocols [39].
Cell cycle analysis and measurement of apoptotic potential
The effect of compound 4b and 4d on cell cycle progression of colon HCT-116 cell line was evaluated using Propidium Iodide Flow Cytometry Kit to measure the DNA content according to the reported protocols. The HCT116 cells used in this work were obtained from the American Type Culture Collection. Cells were cultured in DMEM (Invitrogen/Life Technologies) supplemented with 10% FBS (Hyclone), 10 µg/ml insulin (Sigma), and 1% penicillin-streptomycin. The remaining chemicals and reagents were all from Sigma or Invitrogen. Growth media was removed, cells washed with warm PBS and aspirated. Adhered cells were detached from media by addition of 5 ml 10% trypsin/EDTA and incubated 2 minutes in the incubator. The suspended cells harvested, aspirated to a falcon tube, centrifuged at 2000 rpm for 5 minutes. Cell count performed after suspending the cells into a fresh media and stained with trypan blue, counted and used for preparation of the appropriate number of cells.

[5] = test system: Leukemia cancer cell lines; assay: NCI five-dose testing, subpanel (GI50 range, MID b, selectivity); settings: for GI50: Homo sapiens; for SI: full-panel MG-MID / subpanel MG-MID, Leukemia; for MG-MID: mean activity across subpanel Leukemia
Source text: as §1, §2, §3, §4, §5, §6

Breast Cancer cell lines = assay: NCI five-dose testing, subpanel (MID b, selectivity); settings: for SI: full-panel MG-MID / subpanel MG-MID, Breast Cancer; for MG-MID: mean activity across subpanel Breast Cancer
Source text: as §1, §2, §7, §8, §5, §6

UO-31 = assay: NCI-60 screening, five-dose, SRB; type: cell-based, human; settings: for GI50 / IC50 / LC50 (concentration killing 50% of cells): Homo sapiens
topoisomerase IIβ = topoisomerase IIβ (Homo sapiens, UniProt Q02880); assay: Topoisomerase II inhibition assay (ELISA kit of human DNA topoisomerase); settings: for TOPO II fld (fold of control): HCT116, control = 1; for Topoisomerase II % Inhibition: in comparison to negative control
Sequence of topoisomerase IIβ (Q02880 2-1626): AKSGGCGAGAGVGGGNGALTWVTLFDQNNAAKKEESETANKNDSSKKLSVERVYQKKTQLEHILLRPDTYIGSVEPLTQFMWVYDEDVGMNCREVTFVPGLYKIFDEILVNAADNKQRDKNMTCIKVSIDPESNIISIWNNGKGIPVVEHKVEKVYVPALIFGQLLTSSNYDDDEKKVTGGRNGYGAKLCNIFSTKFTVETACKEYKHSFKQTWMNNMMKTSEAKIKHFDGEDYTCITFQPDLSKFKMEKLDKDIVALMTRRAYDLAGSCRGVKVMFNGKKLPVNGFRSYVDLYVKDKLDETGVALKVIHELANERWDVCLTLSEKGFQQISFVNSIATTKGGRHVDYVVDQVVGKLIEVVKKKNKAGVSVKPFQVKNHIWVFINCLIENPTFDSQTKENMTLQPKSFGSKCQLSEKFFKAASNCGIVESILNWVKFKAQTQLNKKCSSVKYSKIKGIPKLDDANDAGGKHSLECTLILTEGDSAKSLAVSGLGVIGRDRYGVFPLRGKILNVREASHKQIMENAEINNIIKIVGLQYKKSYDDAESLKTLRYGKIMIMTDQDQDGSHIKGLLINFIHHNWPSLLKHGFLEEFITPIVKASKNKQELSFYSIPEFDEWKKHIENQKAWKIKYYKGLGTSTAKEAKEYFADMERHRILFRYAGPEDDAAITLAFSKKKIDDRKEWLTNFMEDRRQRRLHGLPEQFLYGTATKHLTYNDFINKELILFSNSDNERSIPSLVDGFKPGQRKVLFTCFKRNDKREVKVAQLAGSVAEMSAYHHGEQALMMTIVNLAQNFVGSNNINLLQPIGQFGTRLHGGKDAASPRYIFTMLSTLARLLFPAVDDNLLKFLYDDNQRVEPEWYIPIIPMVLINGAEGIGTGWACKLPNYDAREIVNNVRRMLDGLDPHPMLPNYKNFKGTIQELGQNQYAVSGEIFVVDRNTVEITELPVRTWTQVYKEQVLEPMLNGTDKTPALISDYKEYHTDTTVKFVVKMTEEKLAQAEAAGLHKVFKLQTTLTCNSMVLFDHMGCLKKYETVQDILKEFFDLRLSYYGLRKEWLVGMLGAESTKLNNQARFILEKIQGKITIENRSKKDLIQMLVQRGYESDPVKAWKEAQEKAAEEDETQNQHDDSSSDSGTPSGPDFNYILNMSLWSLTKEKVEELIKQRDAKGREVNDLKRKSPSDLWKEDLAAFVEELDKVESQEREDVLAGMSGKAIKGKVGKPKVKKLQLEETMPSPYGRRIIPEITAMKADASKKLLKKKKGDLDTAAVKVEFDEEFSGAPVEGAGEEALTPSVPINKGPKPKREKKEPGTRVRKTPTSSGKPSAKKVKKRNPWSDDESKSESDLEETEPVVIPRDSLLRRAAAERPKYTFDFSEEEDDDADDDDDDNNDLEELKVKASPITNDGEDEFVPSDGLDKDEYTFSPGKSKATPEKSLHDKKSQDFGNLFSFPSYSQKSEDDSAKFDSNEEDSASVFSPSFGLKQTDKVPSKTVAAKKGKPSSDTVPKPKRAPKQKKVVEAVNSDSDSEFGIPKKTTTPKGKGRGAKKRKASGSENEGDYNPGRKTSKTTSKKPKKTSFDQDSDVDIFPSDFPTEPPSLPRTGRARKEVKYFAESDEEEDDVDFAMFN

[6] = test system: Ovarian Cancer cell lines; assay: NCI five-dose testing, subpanel (MID b, selectivity); settings: for SI: full-panel MG-MID / subpanel MG-MID, Ovarian Cancer; for MG-MID: mean activity across subpanel Ovarian Cancer
Source text: as §1, §2, §7, §8, §5, §6

Renal Cancer cell lines = assay: as above; settings: full-panel MG-MID / subpanel MG-MID
Source text: as §1, §2, §7
The anti-cancer potential of the tested compounds was evaluated at the National cancer institute (NCI), Bethesda, USA, against 9 panels of 60 various cell lines derived from nine human tumours available usually at NCI library. The procedures for the screening were described in details in NCI website (dttp://www.dtp.nci.nih.gov.) and were done according to NCI protocols. […]

Topoisomerase I = molecular target: T1, Topoisomerase I (Homo sapiens, UniProt P11387); assay: Topoisomerase I inhibition assay (ELISA kit of human DNA topoisomerase); settings: for TOPO I fld (fold of control): HCT116, control = 1; for Topoisomerase I % Inhibition: in comparison to negative control
T1 sequence (P11387 1-765): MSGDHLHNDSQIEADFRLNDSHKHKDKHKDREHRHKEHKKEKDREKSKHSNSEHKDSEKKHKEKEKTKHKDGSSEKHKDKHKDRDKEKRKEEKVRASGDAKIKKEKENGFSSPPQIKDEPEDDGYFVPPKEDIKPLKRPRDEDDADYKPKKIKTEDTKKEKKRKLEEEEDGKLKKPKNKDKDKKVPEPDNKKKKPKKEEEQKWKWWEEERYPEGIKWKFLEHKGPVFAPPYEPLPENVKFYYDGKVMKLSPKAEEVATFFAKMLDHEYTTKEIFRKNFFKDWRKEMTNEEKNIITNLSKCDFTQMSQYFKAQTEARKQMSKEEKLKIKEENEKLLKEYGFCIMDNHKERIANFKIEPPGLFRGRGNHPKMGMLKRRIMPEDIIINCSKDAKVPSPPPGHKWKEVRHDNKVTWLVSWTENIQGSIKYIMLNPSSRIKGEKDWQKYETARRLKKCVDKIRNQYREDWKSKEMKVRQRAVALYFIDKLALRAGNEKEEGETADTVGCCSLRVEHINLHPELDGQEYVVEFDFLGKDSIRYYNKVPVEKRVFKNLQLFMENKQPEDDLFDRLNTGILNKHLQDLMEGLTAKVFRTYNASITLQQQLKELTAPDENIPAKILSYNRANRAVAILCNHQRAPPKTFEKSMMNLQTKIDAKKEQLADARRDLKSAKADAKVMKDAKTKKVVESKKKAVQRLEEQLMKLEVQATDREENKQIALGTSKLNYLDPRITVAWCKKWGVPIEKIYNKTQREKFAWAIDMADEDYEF
Experimental: The assay was performed using a commercially available Topoisomerase I Drug Screening Kit (TopoGen, Inc., Cat. # TG1015-1, Buena Vista, CO, USA) according to the manufacturer’s instructions, with minor modifications.
Evaluation of Topoisomerase I/II inhibition
Two folds of serial dilution was accomplished after standards and the tested compounds were dissolved in sample diluent.
Horseradish peroxidase (HRP-avidin) and biotin-conjugated antibody were diluted 10 times each.
Each well received 100 μL of each concentration of the standard or test chemicals, which were then added and incubated at 37 °C for 60 min. After each well's liquid had been carefully removed,
incubated for 1 h at 37 °C. The microtiter plate was rinsed three times and given room to aspirate.
After that, the plate was incubated at 37 °C for 60 min with 100 μL of HRP-avidin solution added to each well. After that, the plate was aspirated and cleaned 5 times. Each well received 90 μL of TMB substrate, and the plate was incubated for 30 min. at 37 °C in a light-protected environment.
Finally, stop solution (50 μL) was loaded, and within 5 minutes, the absorbance at 450 nm was measured spectrophotometrically.

colon HCT116 cells = assay: Annexin V-FITC/PI apoptosis and necrosis assay; type: cell-based, human; settings: HCT116 treated with IC50 concentration; for Apoptosis Late: DMSO 0.15%; for Apoptosis Early: DMSO 0.39%; for Apoptosis Total: DMSO 0.54%; for Necrosis: DMSO 1.83%
caspase-9 = assay: Relative gene expression by qRT-PCR in HCT-116; type: cell-based, human; settings: HCT116; untreated control = 1
caspase-3 = assay: Relative gene expression by qRT-PCR in HCT-116; type: cell-based, human; settings: HCT116; untreated control = 1
Bax = assay: Relative gene expression by qRT-PCR in HCT-116; type: cell-based, human; settings: HCT116; untreated control = 1

Structure (SMILES): Cc1nc(SCC(=O)N2CCN(c3cc4c(cc3F)c(=O)c(C(=O)O)cn4C3CC3)CC2)sc1C(=O)/C=C/c1cccc(Cl)c1 [Compound 4b, (E)-7-(4-(2-((5-(3-(3-Chlorophenyl)acryloyl)-4-methylthiazol-2-yl)thio)acetyl)piperazin-1-yl)-1-cyclopropyl-6-fluoro-4-oxo-1,4-dihydroquinoline-3-carboxylic Acid]
- viability at 0.4 µM [1]: 82.8%
- viability at 1.6 µM [1]: 71.8%
- viability at 6.3 µM [1]: 63.5%
- viability at 25 µM [1]: 52.9%
- viability at 100 µM [1]: 37.1%
- IC50 [1]: 26.8 ± 0.92 µM
- SI (CNS Cancer cell lines): 1.01
- MG-MID (CNS Cancer cell lines): 69.63 µM
- IC50 [2]: 0.3 to 3.7 µM
- GI50 (Colon Cancer cell lines): 0.3 to 15.1 µM
- SI (Colon Cancer cell lines): 2.18
- MG-MID (Colon Cancer cell lines): 32.16 µM
- SI [3]: 0.70
- MG-MID [3]: 100.0 µM
- SI (Melanoma cell lines): 0.95
- MG-MID (Melanoma cell lines): 74.08 µM
- Cell cycle arrest phase [4]: G1 phase
- DNA Content G2/M Phase [4]: 2.92%
- DNA Content S Phase [4]: 23.23%
- DNA Content G0-G1 Phase [4]: 73.85%
- GI50 [5]: 0.2 to 12.9 µM
- SI [5]: 9.22
- MG-MID [5]: 7.62 µM
- SI (Breast Cancer cell lines): 1.04
- MG-MID (Breast Cancer cell lines): 67.8 µM
- TGI (UO-31): 100.0 µM
- GI50 (UO-31): > 100 µM
- IC50 (UO-31): > 100 µM
- LC50 (concentration killing 50% of cells) (UO-31): > 100 µM
- TOPO II fld (fold of control) (topoisomerase IIβ): 0.266
- Topoisomerase II % Inhibition (topoisomerase IIβ): 73.4%
- SI [6]: 0.77
- MG-MID [6]: 91.67 µM
- SI (Renal Cancer cell lines): 1.5
- TOPO I fld (fold of control) (Topoisomerase I): 0.227
- Topoisomerase I % Inhibition (Topoisomerase I): 77.3%
- Apoptosis Late (colon HCT116 cells): 22.37%
- Apoptosis Early (colon HCT116 cells): 6.96%
- Apoptosis Total (colon HCT116 cells): 29.33%
- Necrosis (colon HCT116 cells): 3.66%

Structure (SMILES): Cc1nc(SCC(=O)N2CCN(c3cc4c(cc3F)c(=O)c(C(=O)O)cn4C3CC3)CC2)sc1C(=O)/C=C/c1cccc(F)c1 [Compound 4d, (E)-1-Cyclopropyl-6-fluoro-7-(4-(2-((5-(3-(3-fluorophenyl)acryloyl)-4-methylthiazol-2-yl)thio)acetyl)piperazin-1-yl)-4-oxo-1,4-dihydroquinoline-3-carboxylic Acid]
- Relative gene expression of caspase-9 (caspase-9): 4.2 fold and 4.214 fold
- viability at 0.4 µM [1]: 83.4%
- viability at 1.6 µM [1]: 72.8%
- viability at 6.3 µM [1]: 64.1%
- viability at 25 µM [1]: 52.9%
- viability at 100 µM [1]: 44%
- IC50 [1]: 41.2 ± 1.42 µM
- SI (CNS Cancer cell lines): 0.97
- MG-MID (CNS Cancer cell lines): 72.0 µM
- IC50 [2]: 0.3 to 3.7 µM
- GI50 (Colon Cancer cell lines): 0.52 to 4.9 µM
- SI (Colon Cancer cell lines): 2.8
- MG-MID (Colon Cancer cell lines): 25.3 µM
- SI [3]: 0.70
- MG-MID [3]: 100.0 µM
- SI (Melanoma cell lines): 0.89
- MG-MID (Melanoma cell lines): 79.00 µM
- Cell cycle arrest phase [4]: G1 phase
- DNA Content G2/M Phase [4]: 3.75%
- DNA Content S Phase [4]: 18.33%
- DNA Content G0-G1 Phase [4]: 77.92%
- GI50 [5]: 0.19 to 3.39 µM
- SI [5]: 24.6
- MG-MID [5]: 2.9 µM
- SI (Breast Cancer cell lines): 0.99
- MG-MID (Breast Cancer cell lines): 71.1 µM
- TGI (UO-31): 100.0 µM
- GI50 (UO-31): > 100 µM
- IC50 (UO-31): > 100 µM
- LC50 (concentration killing 50% of cells) (UO-31): > 100 µM
- TOPO II fld (fold of control) (topoisomerase IIβ): 0.481
- Topoisomerase II % Inhibition (topoisomerase IIβ): 51.9%
- SI [6]: 0.70
- MG-MID [6]: 100 µM
- SI (Renal Cancer cell lines): 1.5
- Relative gene expression of caspase-3 (caspase-3): 10.86 fold
- Relative gene expression of Bax (Bax): 5.58 fold and 5.577 fold
- TOPO I fld (fold of control) (Topoisomerase I): 0.277
- Topoisomerase I % Inhibition (Topoisomerase I): 72.3%
- Apoptosis Late (colon HCT116 cells): 26.29%
- Apoptosis Early (colon HCT116 cells): 11.92%
- Apoptosis Total (colon HCT116 cells): 38.21%
- Necrosis (colon HCT116 cells): 3.82%
